Measured values: ChEMBL document CHEMBL1136292, “Synthesis and AMPA receptor antagonistic activity of a novel class of quinoxalinecarboxylic acid with a substituted phenyl group at the C-7 position” (Bioorg Med Chem Lett, 2003)
Calls of active or inactive are those of the source. The calls are words filed in the database; no cut-off is given here.

How the values were obtained:
[1] = target: Glutamate receptor ionotropic, AMPA (Rattus norvegicus, UniProt P19490+P19491+P19492+P19493); experiment: biochemical
Description: Binding affinity for ionotropic glutamate receptor AMPA using [3H]AMPA as radioligand, bound to synaptic membranes prepared from rat cerebral cortex

Rattus norvegicus [2] = species on record: Rattus norvegicus; experiment: In vitro inhibitory effect on AMPA-induced DC potential in rat cortical slices; active; type: functional
Rattus norvegicus [3] = experiment: Neuroprotective effect in rat after iv administration at a dose of 20 mg/kg/h for 4 h; type: functional
Rattus norvegicus [4] = experiment: Neuroprotective effect in rat after iv administration at a dose of 30 mg/kg/h for 4 h; type: functional
Rattus norvegicus [5] = experiment: Neuroprotective effect in rat after iv administration at a dose of 15 mg/kg/h for 4 h; type: functional
Rattus norvegicus [6] = experiment: Neuroprotective effect in rat after iv administration at a dose of 5 mg/kg/h for 4 h; type: functional
Rattus norvegicus [7] = experiment: Neuroprotective effect in rat after iv administration at a dose of 2.5 mg/kg/h for 4 h; type: functional

SMILES | Ki [1] | further results
O=C(Nc1ccc(Cl)cc1)OCc1cn(-c2cc3nc(C(=O)O)c(O)nc3cc2[N+](=O)[O-])cn1 | 0.03 µM | 
O=C(O)c1nc2cc(-n3ccnc3)c([N+](=O)[O-])cc2nc1O |  | activity call (active/inactive) (Rattus norvegicus [2]): Active; Activity (Rattus norvegicus [3]): 0.2
Cc1ccccc1NC(=O)OCc1cn(-c2cc3nc(C(=O)O)c(O)nc3cc2[N+](=O)[O-])cn1 | 0.016 µM | 
NS(=O)(=O)c1cccc2c1c([N+](=O)[O-])cc1nc(O)c(O)nc12 [NBQX] |  | Activity (Rattus norvegicus [4]): 2.3
O=C(O)c1nc2cc(N3CCOCC3)c([N+](=O)[O-])cc2nc1O | 2 µM | 
O=C(Nc1ccccc1)OCc1cn(-c2cc3nc(C(=O)O)c(O)nc3cc2[N+](=O)[O-])cn1 | 0.086 µM | 
CN(C)c1cc2nc(C(=O)O)c(O)nc2cc1[N+](=O)[O-] | 0.91 µM | 
O=C(NCc1cccc(Br)c1)OCc1cn(-c2cc3nc(C(=O)O)c(O)nc3cc2[N+](=O)[O-])cn1 | 0.1 µM | 
O=C(O)c1nc2cc(N3CCCCC3)c([N+](=O)[O-])cc2nc1O | 3.8 µM | 
O=C(NCc1ccc(Br)cc1)OCc1cn(-c2cc3nc(C(=O)O)c(O)nc3cc2[N+](=O)[O-])cn1 | 0.047 µM | 
O=C(Nc1ccccc1Br)OCc1cn(-c2cc3nc(C(=O)O)c(O)nc3cc2[N+](=O)[O-])cn1 | 0.03 µM | 
O=C(Nc1ccc(C(=O)O)cc1)OCCc1cn(-c2cc3nc(C(=O)O)c(=O)[nH]c3cc2[N+](=O)[O-])cn1 | 0.27 µM | 
O=C(Nc1cccc(Cl)c1)OCc1cn(-c2cc3nc(C(=O)O)c(O)nc3cc2[N+](=O)[O-])cn1 | 0.018 µM | 
O=C(Nc1ccccc1)OCc1cn(-c2cc3nc(C(=O)O)c(O)nc3cc2[N+](=O)[O-])ccc1=O | 0.17 µM | 
Cc1ccc(NC(=O)OCc2cn(-c3cc4nc(C(=O)O)c(O)nc4cc3[N+](=O)[O-])cn2)cc1 | 0.03 µM | 
O=C(Nc1cccc(Br)c1)OCc1cn(-c2cc3nc(C(=O)O)c(O)nc3cc2[N+](=O)[O-])cn1 | 0.016 µM | 
O=C(Nc1cccc(C(=O)O)c1)OCc1cn(-c2cc3nc(C(=O)O)c(O)nc3cc2[N+](=O)[O-])cn1 | 0.027 µM | activity call (active/inactive) (Rattus norvegicus [2]): Active; Activity (Rattus norvegicus [6]): 2.3
O=C(Nc1ccccc1Cl)OCc1cn(-c2cc3nc(C(=O)O)c(O)nc3cc2[N+](=O)[O-])cn1 | 0.02 µM | 
O=C(O)c1nc2cc(-n3ccc(=O)cc3)c([N+](=O)[O-])cc2nc1O | 0.33 µM | 
Cc1cccc(NC(=O)OCc2cn(-c3cc4nc(C(=O)O)c(O)nc4cc3[N+](=O)[O-])cn2)c1 | 0.022 µM | 
O=C(Nc1ccc(C(=O)O)cc1)OCc1cn(-c2cc3nc(C(=O)O)c(O)nc3cc2[N+](=O)[O-])cn1 |  | activity call (active/inactive) (Rattus norvegicus [2]): Active; Activity (Rattus norvegicus [7]): 3
O=C(NCc1ccccc1Br)OCc1cn(-c2cc3nc(C(=O)O)c(O)nc3cc2[N+](=O)[O-])cn1 | 0.029 µM | 

More lines, main results first:

Ki [1] | SMILES | further results
> 10 µM | Cc1nccn1-c1cc2nc(C(=O)O)c(O)nc2cc1[N+](=O)[O-] | 
0.067 µM | O=C(NCc1ccccc1)OCc1cn(-c2cc3nc(C(=O)O)c(=O)[nH]c3cc2[N+](=O)[O-])cn1 | 
1.3 µM | Cc1cn(-c2cc3nc(C(=O)O)c(O)nc3cc2[N+](=O)[O-])cn1 | 
0.56 µM | O=C(O)c1nc2cc(-n3ccnc3)c([N+](=O)[O-])cc2[nH]c1=O | 
0.1 µM | O=c1[nH]c2cc(-n3ccnc3)c([N+](=O)[O-])cc2[nH]c1=O [YM-90K] | activity call (active/inactive) (Rattus norvegicus [2]): Active; Activity (Rattus norvegicus [5]): 2.8
2 µM | O=C(O)c1nc2cc(F)c([N+](=O)[O-])cc2nc1O | 
> 0.9 µM | O=C(Nc1ccccc1C(=O)O)OCc1cn(-c2cc3nc(C(=O)O)c(=O)[nH]c3cc2[N+](=O)[O-])cn1 | 
2.5 µM | O=C(O)c1nc2cc(N3CCC(O)CC3)c([N+](=O)[O-])cc2nc1O | 
0.53 µM | O=C(O)Cc1cn(-c2cc3nc(C(=O)O)c(O)nc3cc2[N+](=O)[O-])cn1 | 
0.062 µM | O=C(O)Cn1c(=O)c(=O)[nH]c2cc([N+](=O)[O-])c(-n3ccnc3)cc21 [ZONAMPANEL] | activity call (active/inactive) (Rattus norvegicus [2]): Active; Activity (Rattus norvegicus [4]): 0.5
0.032 µM | O=C(Nc1ccc(Br)cc1)OCc1cn(-c2cc3nc(C(=O)O)c(=O)[nH]c3cc2[N+](=O)[O-])cn1 | 
2.6 µM | O=C(O)c1nc2cc(-n3cnc(CO)c3)c([N+](=O)[O-])cc2[nH]c1=O | 
0.022 µM | O=C(Nc1ccc(C(=O)O)cc1)OCc1cn(-c2cc3nc(C(=O)O)c(=O)[nH]c3cc2[N+](=O)[O-])cn1 | 
